Assay results: ChEMBL document CHEMBL4665836, “Overcoming β-Lactam resistance in Pseudomonas aeruginosa using non-canonical tobramycin-based antibiotic adjuvants” (2020)

Columns and labels:
Format in all cases: functional
Pseudomonas aeruginosa [1] = test: Potentiation of imipenem-induced antibacterial activity against carbapenem-resistant Pseudomonas aeruginosa 86052 clinical isolate assessed as fold reduction in imipenem MIC at 8 uM in presence of beta-lactamase inhibitor, rele-bactam
Pseudomonas aeruginosa [2] = test: Potentiation of aztreonam-induced antibacterial activity against carbapenem-resistant Pseudomonas aeruginosa 86052 clinical isolate assessed as fold reduction in aztreonam MIC at 8 uM in presence of beta-lactamase inhibitor, avi-bactam
Pseudomonas aeruginosa [3] = test: Potentiation of aztreonam-induced antibacterial activity against carbapenem-resistant Pseudomonas aeruginosa 88949 clinical isolate assessed as fold reduction in aztreonam MIC at 8 uM in presence of beta-lactamase inhibitor, avi-bactam
Pseudomonas aeruginosa [4] = test: Potentiation of aztreonam-induced antibacterial activity against carbapenem-resistant Pseudomonas aeruginosa 107092 clinical isolate assessed as fold reduction in aztreonam MIC at 8 uM in presence of beta-lactamase inhibitor, avi-bactam
Pseudomonas aeruginosa [5] = test: Potentiation of aztreonam-induced antibacterial activity against carbapenem-resistant Pseudomonas aeruginosa 108590 clinical isolate assessed as fold reduction in aztreonam MIC at 8 uM in presence of beta-lactamase inhibitor, avi-bactam
Pseudomonas aeruginosa [6] = test: Potentiation of ceftazidime-induced antibacterial activity against carbapenem-resistant Pseudomonas aeruginosa 86052 clinical isolate assessed as fold reduction in ceftazidime MIC at 8 uM in presence of beta-lactamase inhibitor, avi-bactam
Pseudomonas aeruginosa [7] = test: Potentiation of imipenem-induced antibacterial activity against carbapenem-resistant Pseudomonas aeruginosa PAO750 harboring mexAB-oprM/mexCD-oprJ/mexEF-oprN/mexJK/mexXY/opmH efflux deficient mutant assessed as imipenem MIC at 8 uM by checkerboard assay (reference value: 4 ug/ml)
Pseudomonas aeruginosa [8] = test: Potentiation of imipenem-induced antibacterial activity against carbapenem-resistant Pseudomonas aeruginosa PAO200 harboring mexAB-oprM efflux deficient mutant assessed as imipenem MIC at 8 uM by checkerboard assay (reference value: 4 ug/ml)
Pseudomonas aeruginosa [9] = test: Potentiation of imipenem-induced antibacterial activity against carbapenem-resistant Pseudomonas aeruginosa 107092 clinical isolate assessed as imipenem MIC at 8 uM by checkerboard assay (reference value: 64 ug/ml)
Pseudomonas aeruginosa [10] = test: Potentiation of imipenem-induced antibacterial activity against carbapenem-resistant Pseudomonas aeruginosa 88949 clinical isolate assessed as imipenem MIC at 8 uM by checkerboard assay (reference value: 64 ug/ml)
Pseudomonas aeruginosa [11] = test: Potentiation of imipenem-induced antibacterial activity against carbapenem and colistin-resistant Pseudomonas aeruginosa 114228 clinical isolate assessed as imipenem MIC at 8 uM by checkerboard assay (reference value: 8 ug/ml)
Pseudomonas aeruginosa [12] = test: Potentiation of imipenem-induced antibacterial activity against carbapenem and colistin-resistant Pseudomonas aeruginosa 101243 clinical isolate assessed as imipenem MIC at 8 uM by checkerboard assay (reference value: 8 ug/ml)
Pseudomonas aeruginosa [13] = test: Potentiation of imipenem-induced antibacterial activity against carbapenem-resistant Pseudomonas aeruginosa 101885 clinical isolate assessed as imipenem MIC at 8 uM by checkerboard assay (reference value: 4 ug/ml)
Pseudomonas aeruginosa [14] = test: Potentiation of imipenem-induced antibacterial activity against carbapenem-resistant Pseudomonas aeruginosa 100036 clinical isolate assessed as imipenem MIC at 8 uM by checkerboard assay (reference value: 8 ug/ml)
Pseudomonas aeruginosa [15] = test: Potentiation of imipenem-induced antibacterial activity against carbapenem-resistant Pseudomonas aeruginosa 260-97103 clinical isolate assessed as imipenem MIC at 8 uM by checkerboard assay (reference value: 16 ug/ml)
Pseudomonas aeruginosa [16] = test: Potentiation of imipenem-induced antibacterial activity against carbapenem-resistant Pseudomonas aeruginosa 259-96918 clinical isolate expressing MBL assessed as imipenem MIC at 8 uM by checkerboard assay (reference value: 64 ug/ml)
Pseudomonas aeruginosa [17] = test: Potentiation of ceftazidime-induced antibacterial activity against carbapenem-resistant Pseudomonas aeruginosa 109084 clinical isolate assessed as ceftazidime MIC at 8 uM by checkerboard assay (reference value: 64 ug/ml)
Pseudomonas aeruginosa [18] = test: Potentiation of ceftazidime-induced antibacterial activity against carbapenem-resistant Pseudomonas aeruginosa 107092 clinical isolate assessed as ceftazidime MIC at 8 uM by checkerboard assay (reference value: 128 ug/ml)
Pseudomonas aeruginosa [19] = test: Potentiation of ceftazidime-induced antibacterial activity against carbapenem and colistin-resistant Pseudomonas aeruginosa 114228 clinical isolate assessed as ceftazidime MIC at 8 uM by checkerboard assay (reference value: 8 ug/ml)
Pseudomonas aeruginosa [20] = test: Potentiation of ceftazidime-induced antibacterial activity against carbapenem-resistant Pseudomonas aeruginosa 100036 clinical isolate assessed as ceftazidime MIC at 8 uM by checkerboard assay (reference value: 8 ug/ml)
Pseudomonas aeruginosa [21] = test: Potentiation of ceftazidime-induced antibacterial activity against carbapenem-resistant Pseudomonas aeruginosa 260-97103 clinical isolate assessed as ceftazidime MIC at 8 uM by checkerboard assay (reference value: 32 ug/ml)
Pseudomonas aeruginosa [22] = test: Potentiation of ceftazidime-induced antibacterial activity against wild type Pseudomonas aeruginosa PAO1 assessed as ceftazidime MIC at 8 uM by checkerboard assay (reference value: 2 ug/ml)
Pseudomonas aeruginosa [23] = test: Potentiation of aztreonam-induced antibacterial activity against carbapenem-resistant Pseudomonas aeruginosa PAO750 harboring mexAB-oprM/mexCD-oprJ/mexEF-oprN/mexJK/mexXY/opmH efflux deficient mutant assessed as aztreonam MIC at 8 uM by checkerboard assay (reference value: 0.5 ug/ml)
Pseudomonas aeruginosa [24] = test: Potentiation of aztreonam-induced antibacterial activity against carbapenem-resistant Pseudomonas aeruginosa PAO200 harboring mexAB-oprM efflux deficient mutant assessed as aztreonam MIC at 8 uM by checkerboard assay (reference value: 0.25 ug/ml)
Pseudomonas aeruginosa [25] = test: Potentiation of aztreonam-induced antibacterial activity against carbapenem-resistant Pseudomonas aeruginosa 108590 clinical isolate assessed as aztreonam MIC at 8 uM by checkerboard assay (reference value: 32 ug/ml)
Pseudomonas aeruginosa [26] = test: Potentiation of aztreonam-induced antibacterial activity against carbapenem and colistin-resistant Pseudomonas aeruginosa 114228 clinical isolate assessed as aztreonam MIC at 8 uM by checkerboard assay (reference value: 32 ug/ml)
Pseudomonas aeruginosa [27] = test: Potentiation of aztreonam-induced antibacterial activity against carbapenem-resistant Pseudomonas aeruginosa 260-97103 clinical isolate assessed as aztreonam MIC at 8 uM by checkerboard assay (reference value: 64 ug/ml)
Pseudomonas aeruginosa [28] = test: Potentiation of aztreonam-induced antibacterial activity against wild type Pseudomonas aeruginosa PAO1 assessed as aztreonam MIC at 8 uM by checkerboard assay (reference value: 4 ug/ml)
Pseudomonas aeruginosa [29] = test: Antibacterial activity against Pseudomonas aeruginosa PAO750 harboring mexAB-oprM/mexCD-oprJ/mexEF-oprN/mexJK/mexXY/opmH efflux deficient mutant
Pseudomonas aeruginosa [30] = test: Potentiation of ceftazidime-induced antibacterial activity against carbapenem-resistant Pseudomonas aeruginosa 259-96918 clinical isolate expressing metallo-beta-lactamase assessed as ceftazidime MIC at 8 uM by checkerboard assay (reference value: 512 ug/ml)
Pseudomonas aeruginosa [31] = test: Potentiation of aztreonam-induced antibacterial activity against wild type Pseudomonas aeruginosa PAO1 assessed as fold reduction in aztreonam MIC at 8 uM
Pseudomonas aeruginosa [32] = test: Potentiation of imipenem-induced antibacterial activity against wild type Pseudomonas aeruginosa PAO1 assessed as fold reduction in imipenem MIC at 8 uM

| Structure (SMILES) | fold change (FC) (Pseudomonas aeruginosa [1]) | fold change (FC) (Pseudomonas aeruginosa [2]) | fold change (FC) (Pseudomonas aeruginosa [3]) | fold change (FC) (Pseudomonas aeruginosa [4]) | fold change (FC) (Pseudomonas aeruginosa [5]) | fold change (FC) (Pseudomonas aeruginosa [6]) | MIC (Pseudomonas aeruginosa [7]) | MIC (Pseudomonas aeruginosa [8]) | MIC (Pseudomonas aeruginosa [9]) | MIC (Pseudomonas aeruginosa [10]) | MIC (Pseudomonas aeruginosa [11]) | MIC (Pseudomonas aeruginosa [12]) | MIC (Pseudomonas aeruginosa [13]) | MIC (Pseudomonas aeruginosa [14]) | MIC (Pseudomonas aeruginosa [15]) | MIC (Pseudomonas aeruginosa [16]) | MIC (Pseudomonas aeruginosa [17]) | MIC (Pseudomonas aeruginosa [29]) | fold change (FC) (Pseudomonas aeruginosa [31]) | fold change (FC) (Pseudomonas aeruginosa [32]) | further results |
| --- | --- | --- | --- | --- | --- | --- | --- | --- | --- | --- | --- | --- | --- | --- | --- | --- | --- | --- | --- | --- | --- |
| Cl.Cl.Cl.Cl.Cl.NC[C@H]1O[C@H](O[C@H]2[C@H](OCCCCCCCCCCCCN3CCN(c4cc5c(cc4F)c(=O)c(C(=O)O)cn5C4CC4)CC3)[C@@H](O)[C@H](N)C[C@@H]2N)[C@H](N)C[C@@H]1O | 16 | 16 | 16 | 16 | 16 | 16 | 2 µg/mL | 1 µg/mL | 16 µg/mL | 64 µg/mL | 1 µg/mL | 4 µg/mL | 2 µg/mL | 4 µg/mL | 2 µg/mL | 16 µg/mL | 32 µg/mL | 2 µg/mL | 2 | 2 | MIC (Pseudomonas aeruginosa [18]): 64 µg/mL; MIC (Pseudomonas aeruginosa [19]): 4 µg/mL; MIC (Pseudomonas aeruginosa [20]): 4 µg/mL; MIC (Pseudomonas aeruginosa [21]): 0.25 µg/mL; MIC (Pseudomonas aeruginosa [22]): 0.25 µg/mL; MIC (Pseudomonas aeruginosa [23]): 0.13 µg/mL; MIC (Pseudomonas aeruginosa [24]): 0.03 µg/mL; MIC (Pseudomonas aeruginosa [25]): 0.13 µg/mL; MIC (Pseudomonas aeruginosa [26]): 8 µg/mL; MIC (Pseudomonas aeruginosa [27]): 0.25 µg/mL; MIC (Pseudomonas aeruginosa [28]): 0.5 µg/mL; MIC (Pseudomonas aeruginosa [30]): 128 µg/mL |
| NC[C@H]1O[C@H](O[C@H]2[C@H](OCCCCc3cn(CCCCO[C@@H]4[C@@H](O[C@H]5O[C@H](CO)[C@@H](O)[C@H](N)[C@H]5O)[C@H](N)C[C@H](N)[C@H]4O[C@H]4O[C@H](CN)[C@@H](O)C[C@H]4N)nn3)[C@@H](O[C@H]3O[C@H](CO)[C@@H](O)[C@H](N)[C@H]3O)[C@H](N)C[C@@H]2N)[C@H](N)C[C@@H]1O.O=C(O)C(F)(F)F.O=C(O)C(F)(F)F.O=C(O)C(F)(F)F.O=C(O)C(F)(F)F.O=C(O)C(F)(F)F.O=C(O)C(F)(F)F.O=C(O)C(F)(F)F.O=C(O)C(F)(F)F.O=C(O)C(F)(F)F.O=C(O)C(F)(F)F | 16 | 16 | 16 | 16 | 16 | 16 | 1 µg/mL | 1 µg/mL | 16 µg/mL | 4 µg/mL | 0.5 µg/mL | 8 µg/mL | 4 µg/mL | 4 µg/mL | 16 µg/mL | 32 µg/mL | 32 µg/mL | > 128 µg/mL | 2 | 2 | MIC (Pseudomonas aeruginosa [18]): 32 µg/mL; MIC (Pseudomonas aeruginosa [19]): 1 µg/mL; MIC (Pseudomonas aeruginosa [20]): 2 µg/mL; MIC (Pseudomonas aeruginosa [21]): 8 µg/mL; MIC (Pseudomonas aeruginosa [22]): 0.25 µg/mL; MIC (Pseudomonas aeruginosa [23]): 0.06 µg/mL; MIC (Pseudomonas aeruginosa [24]): 0.03 µg/mL; MIC (Pseudomonas aeruginosa [25]): 8 µg/mL; MIC (Pseudomonas aeruginosa [26]): 4 µg/mL; MIC (Pseudomonas aeruginosa [27]): 16 µg/mL; MIC (Pseudomonas aeruginosa [28]): 0.25 µg/mL; MIC (Pseudomonas aeruginosa [30]): 128 µg/mL |
| NC[C@H]1O[C@H](O[C@H]2[C@H](OCCCCCCCCN3CCCNCCNCCCNCC3)[C@@H](O[C@H]3O[C@H](CO)[C@@H](O)[C@H](N)[C@H]3O)[C@H](N)C[C@@H]2N)[C@H](N)C[C@@H]1O.O=C(O)C(F)(F)F.O=C(O)C(F)(F)F.O=C(O)C(F)(F)F.O=C(O)C(F)(F)F.O=C(O)C(F)(F)F.O=C(O)C(F)(F)F.O=C(O)C(F)(F)F.O=C(O)C(F)(F)F.O=C(O)C(F)(F)F | 16 | 16 | 16 | 16 | 16 | 16 | 2 µg/mL | 2 µg/mL | 16 µg/mL | 32 µg/mL | 8 µg/mL | 8 µg/mL | 2 µg/mL | 8 µg/mL | 8 µg/mL | 64 µg/mL |  | 128 µg/mL | 2 | 2 |  |
